Patent publication US8674107B2, “Crystal of anti-bacterial compound” (priority 2010, dated 2014)
Counter-ions that a name gives are not always drawn.

Legend:
Type in all cases: physicochemical
[1] = Evaluation of moisture absorption and desorption properties (microbalance); details: 25° C.; for moisture absorption and desorption patterns: 10-90% RH; for change in weight (moisture absorption and desorption properties): measurement range 10-90% RH
Experimental: Of the various samples prepared in Example 1, the monohydrochloride dihydrate, monohydrochloride monohydrate, and sulfate were separately placed in quartz holders and examined for their moisture absorption and desorption behaviors using a microbalance under the following measurement conditions:
Measurement conditions for moisture absorption and desorption behavior (sample volume: approximately 10 mg, measurement range: 10-90% RH, measurement temperature: 25° C., variable: within 0.03%, varying length of time: 10 minutes, apparatus: atmospheric pressure-type automatic water vapor sorption instrument manufactured by VTI Corp.)

[2] = Evaluation of solubility in test solutions (HPLC); details: for Concentration: 37° C., total of 30 minutes
Experimental: The monohydrochloride dihydrate prepared in Example 1 and the free form (anhydrous form) were used in the following evaluation of solubility: an appropriate amount of each sample was added to 2 mL each of the test solutions (water, the JP 1st fluid for the disintegration test (JP1), and the JP 2nd fluid for the disintegration test (JP2)), fasted state simulated intestinal fluid (FaSSIF), and fed state simulated intestinal fluid (FeSSIF), and incubated in a thermobath of 37° C. Each solution was shaken in a vortex mixer for 30 seconds every 5 minutes (for a total of 30 minutes). Then, the supernatant was filtered through a membrane filter (pore size: 0.45 μm). After appropriate dilution with an eluent, the diluted solution was subjected to HPLC analysis to calculate concentration.
Measurement conditions for HPLC;
Column: Waters Symmetry C18 3.5 um, 4.6×100 mm
Column temperature: 40° C.
Mobile phase: 50 mM KH2PO4-K2HPO4 (pH 7.0)/MeCN=8:2

[3] = Evaluation of chemical stability (storage under dry-heat or wet-heat, HPLC); details: 2 weeks
Experimental: Approximately 2 mg each of various samples prepared in Example 1 was weighed into an aluminum pan for thermal analysis and stored under dry-heat (60° C., 0% RH) or wet-heat (40° C., 75% RH) conditions. One and two weeks later, each sample was collected, and the change in weight was determined. Then, the whole amount was dissolved in 20 mL of an eluent and subjected to HPLC analysis.

[4] = listed as monohydrochloride dihydrate of compound A, monohydrochloride dihydrate

Cc1c(N2C[C@]3(N)CCC[C@]3(F)C2)c(F)cc2c(=O)c(C(=O)O)cn([C@@H]3C[C@@H]3F)c12 [monohydrochloride monohydrate]
moisture absorption and desorption patterns ([1]; monohydrate): substantially the same
change in weight (moisture absorption and desorption properties) ([1]; monohydrate): ≤ 1%

Cc1c(N2C[C@]3(N)CCC[C@]3(F)C2)c(F)cc2c(=O)c(C(=O)O)cn([C@@H]3C[C@@H]3F)c12 [Monohydrochloride dihydrate, 7-[(1R,5S)-1-amino-5-fluoro-3-azabicyclo[3.3.0]octan-3-yl]-6-fluoro-1-[(1R,2S)-2-fluorocyclopropan-1-yl]-1,4-dihydro-8-methyl-4-oxoquinoline-3-carboxylic acid monohydrochloride dihydrate]
moisture absorption and desorption patterns [1, 4]: well consistent
moisture absorption and desorption patterns ([1]; monohydrochloride dihydrate): well consistent
change in weight (moisture absorption and desorption properties) [1, 4]: ≤ 2%
solubility at 30 min ([2]; 37 °C, thermodynamic from solid, in each of water, JP 1st fluid, JP 2nd fluid, FaSSIF and FeSSIF): ≥ 2000 µg/mL
Concentration ([2]; Fasted state simulated intestinal fluid (FaSSIF), monohydrochloride dihydrate): >2000 µg/mL
Concentration ([2]; Fed state simulated intestinal fluid (FeSSIF)): >2000 µg/mL
Concentration ([2]; JP 1st fluid for dissolution test): >2000 µg/mL
Concentration ([2]; JP 2nd fluid for dissolution test, monohydrochloride dihydrate): >2000 µg/mL
Concentration ([2]; Water, monohydrochloride dihydrate): >2000 µg/mL
Increase in related substances (%) ([3]; 60° C./0% RH, listed as monohydrochloride dihydrate of compound A, monohydrochloride dihydrate): 0.02%
Increase in related substances (%) ([3]; 60° C./0% RH, monohydrochloride dihydrate): 0.02%

Cc1c(N2C[C@]3(N)CCC[C@]3(F)C2)c(F)cc2c(=O)c(C(=O)O)cn([C@@H]3C[C@@H]3F)c12 [Free form (anhydride), 7-[(1R,5S)-1-amino-5-fluoro-3-azabicyclo[3.3.0]octan-3-yl]-6-fluoro-1-[(1R,2S)-2-fluorocyclopropan-1-yl]-1,4-dihydro-8-methyl-4-oxoquinoline-3-carboxylic acid]
Concentration ([2]; Fasted state simulated intestinal fluid (FaSSIF)): 319 µg/mL
Concentration ([2]; JP 2nd fluid for dissolution test): 352 µg/mL
Concentration ([2]; Water): 280 µg/mL
Increase in related substances (%) ([3]; 40° C./75% RH): 0.01%
Increase in related substances (%) ([3]; 60° C./0% RH): 0.01%

Cc1c(N2C[C@]3(N)CCC[C@]3(F)C2)c(F)cc2c(=O)c(C(=O)O)cn([C@@H]3C[C@@H]3F)c12 [sulfate of compound A]
moisture absorption and desorption patterns [1]: well consistent
change in weight (moisture absorption and desorption properties) [1]: ≤ 2%
change in weight (moisture absorption and desorption behaviors) ([1]; relative humidity of 40% to 60%): ≤ 2%
